Here are results for nine substances from US7309584B2, “Mutations of the MDR1 P-glycoprotein that improves its ability to confer resistance to chemotherapeutic drugs” (The Board of Trustees of the University of Illinois, priority 2000, dated 2007).

Experiment [1] has as its system NIH 3T3 cells. Description: clonogenic assays for drug resistance of NIH 3T3 cells transduced with MDR1 constructs. Type of experiment: cell-based. Particulars: for colchicine resistance relative to cells transduced with wild-type MDR1: FIG. 4B; for doxorubicin resistance relative to cells transduced with wild-type MDR1: FIG. 4C; for etoposide resistance relative to cells transduced with wild-type MDR1: FIG. 4A; for doxorubicin resistance relative to the LMDR1-G185V construct: FIG. 5B, 6B; for taxol resistance relative to the LMDR1-G185V construct: FIG. 6E; for vinblastine resistance relative to the LMDR1-G185V construct: FIG. 6D; for colchicine resistance relative to the LMDR1-G185V construct: FIG. 5C, 6C; for fold increase in doxorubicin resistance relative to the LMDR1-G185V construct: transduced NIH 3T3 cells, Table II; for fold increase in etoposide resistance relative to the LMDR1-G185V construct: transduced NIH 3T3 cells sorted for similar P-glycoprotein levels; for fold increase in etoposide resistance relative to the LMDR1-G185V construct / etoposide resistance relative to the LMDR1-G185V construct: FIG. 5A; for taxol resistance relative to cells transduced with wild-type MDR1: FIG. 4E; for vinblastine resistance relative to cells transduced with wild-type MDR1: FIG. 4D; for etoposide resistance relative to the LMDR1-G185V construct: 6A. An excerpt:
FIGS. 4A through 4E illustrate the results of clonogenic assays for resistance to etoposide (panel A), colchicine (panel B), doxorubicin (panel C), vinblastine (panel D), and taxol (panel E) for NIH 3T3 cells transduced with LXSN (closed squares), wild-type MDR1 (closed circles), MDR1-G185V (open circles), MDR1-I186N (closed triangles), or MDR1-G185V/I186N (open triangles);
FIGS. 5A through 5C illustrate the results of clonogenic assays for resistance to etoposide (panel A), doxorubicin (panel B), and colchicine (panel C) for NIH 3T3 cells transduced with LMDR1-G185V (open circles), LMDR1-G185V-EK2 (closed triangles), LMDR1-G185V-EK3 (open triangles), or LMDR1-G185V-EK5 (closed diamonds);
FIGS. 6A through 6E illustrate the results of clonogenic assays for resistance to etoposide (panel A), doxorubicin (panel B), colchicine (panel C), vinblastine (panel D), and taxol (panel E) for NIH 3T3 cells transduced with LMDR1-G185V (closed circles), LMDR1-G185V-L56F (open circles), LMDR1-G185V-I190F/M197F (closed triangles), LMDR1-G185V-G763W (open triangles), or LMDR1-G185V-G844Q (closed squares).
Retroviral vectors carrying LXSN (negative control carrying the neomycin/G418 resistance gene), wild-type MDR1, MDR1-G185V, MDR1-I186N, or MDR1-G185V/I186N were individually transduced into NIH 3T3 cells. Populations transduced with MDR1 containing vectors were stained with the P-glycoprotein-specific monoclonal antibody MRK16, and then sorted to obtain cell populations expressing a similar level of P-glycoprotein.
NIH 3T3 cells were transduced with the LMDR1-G185V, LMDR1-G185V-EK2, LMDR1-G185V-EK3, or LMDR1-G185V-EK5 constructs, and the transduced cells were then sorted by FACS to generate pure populations of P-glycoprotein positive cells having similar levels of P-glycoprotein. Following sorting, the cell populations were analyzed for their drug resistance.
To investigate the mutants 8-A4, 5-C3, 2-B2, and 2-B1, having mutations in one of the transmembrane domains, MDR1-G185V cDNA was modified by site-directed mutagenesis to create the following constructs: LMDR1-G185V-L56F (leucine to phenylalanine mutation at residue 56), LMDR1-G185V-I190F/M197F (isoleucine to phenylalanine mutation at amino acid residue 190 and methionine to phenylalanine mutation at residue 197), LMDR1-G185V-G763W (glycine to tryptophan mutation at residue 763), and LMDR1-G185V-G844Q (glycine to glutamine mutation at residue 844). NIH 3T3 cells were transduced with either the LMDR1-G185V construct or one of the transmembrane mutant constructs, and the transduced cells were then sorted by FACS to generate pure populations of P-glycoprotein positive cells having similar levels of P-glycoprotein. Following sorting, the cell populations were analyzed for their drug resistance.

The subject of experiment [2] is NIH 3T3 cells. Description: etoposide resistance / survival in etoposide of NIH 3T3 cells transduced with rescued MDR1-G185V mutants. The note with it: mutant fragments recloned into LMDR1-G185V, similar MDR1 expression. Type of experiment: cell-based. The protocol:
Mutant MDR1-G185V cDNA isolated from eleven clonal lines was tested for the ability to confer elevated resistance to etoposide as compared to unmutagenized MDR1-G185V. Fragments of MDR1 cDNA containing mutations were first excised from the MDR1 cDNA using restriction endonucleases that recognize appropriate sites flanking the mutation, and then the fragments were recloned into the parental LMDR1-G185V vector. Naïve NIH 3T3 cells were individually transduced with the eleven LMDR1-G185V mutants, wild-type LMDR1-G185V, or LXSN, and then analyzed by FACS for MDR1 expression. […] The cell populations were then assayed for etoposide resistance.
An array selection strategy was employed to isolate additional MDR1 mutants conferring hyper-resistance to etoposide from the cells transduced with Mut II and selected in 10 μg/mL etoposide, as described in Example 1 (this selection scheme is shown in FIG. 1C and in FIG. 2). The 131 clonal lines from Example 1 were divided into four pools. MDR1 cDNA was recovered by PCR from each of the four pools, recloned back into LXSN, and used to transform bacterial cells to generate four MDR1 mutant libraries. These libraries were plated; individual bacterial colonies were picked and tested by array analysis. […]

As for “MDR1-G185V/I186N: mutant human P-glycoprotein having both G185V and I186N substitutions”, in the experiment with NIH 3T3 cells [1], the “colchicine resistance relative to cells transduced with wild-type MDR1” value is “indistinguishable from that obtained for cells transduced with the MDR1-G185V construct”, the “doxorubicin resistance relative to cells transduced with wild-type MDR1” value is reported as “an even higher level of doxorubicin resistance” and the “etoposide resistance relative to cells transduced with wild-type MDR1” value is “higher level of etoposide resistance than cells transduced with either the MDR1-G185V or MDR1-I186N constructs”.

With “G763W: MDR1-G185V construct with glycine to tryptophan mutation at residue 763”, in the experiment with NIH 3T3 cells [1], the “doxorubicin resistance relative to the LMDR1-G185V construct” value is given as “moderate increases in doxorubicin resistance”, the “taxol resistance relative to the LMDR1-G185V construct” value is “no effect on taxol resistance” and the “vinblastine resistance relative to the LMDR1-G185V construct” value is listed as “only a moderate increase in vinblastine resistance”.

For “LMDR1-G185V-EK2: MDR1-G185V construct with glutamic acid to lysine substitutions at positions 634 and 636”, in the experiment with NIH 3T3 cells [1], the “colchicine resistance relative to the LMDR1-G185V construct” value is reported as “decrease colchicine resistance”, the “doxorubicin resistance relative to the LMDR1-G185V construct” value is listed as “increase doxorubicin resistance”, the “fold increase in doxorubicin resistance relative to the LMDR1-G185V construct” value is on record as “almost two-fold increase” and the “fold increase in etoposide resistance relative to the LMDR1-G185V construct” value is listed as 1.4 fold.

As for “MDR1-I186N: mutant human P-glycoprotein having an asparagine substitution at position 186 (SEQ ID NO: 4)”, in the experiment with NIH 3T3 cells [1], the “colchicine resistance relative to cells transduced with wild-type MDR1” value is on record as “increase colchicine resistance”, the “doxorubicin resistance relative to cells transduced with wild-type MDR1” value is reported as “doxorubicin resistance was enhanced”, the “etoposide resistance relative to cells transduced with wild-type MDR1” value is reported as “increase etoposide resistance to a similar degree as the G185V substitution” and the “taxol resistance relative to cells transduced with wild-type MDR1” value is recorded as “increase resistance to both of these drugs”. Also, in the experiment with NIH 3T3 cells [1], the “vinblastine resistance relative to cells transduced with wild-type MDR1” value is listed as “increase resistance to both of these drugs”. For the same substance, the “etoposide resistance as compared to unmutagenized MDR1-G185V” value in the experiment on NIH 3T3 cells [2] was “increased resistance to etoposide”.

Consider “L56F: MDR1-G185V construct with leucine to phenylalanine mutation at residue 56”, for which, in the experiment with NIH 3T3 cells [1], the “colchicine resistance relative to the LMDR1-G185V construct” value is recorded as “increased colchicine resistance”, the “doxorubicin resistance relative to the LMDR1-G185V construct” value is reported as “very strong resistance to doxorubicin”, the “taxol resistance relative to the LMDR1-G185V construct” value was “decreased taxol resistance” and the “vinblastine resistance relative to the LMDR1-G185V construct” value was “decreased vinblastine resistance”.

“LMDR1-G185V-EK5: MDR1-G185V construct with glutamic acid to lysine substitutions at positions 634, 636, 643, 647 and 652”: in the experiment on NIH 3T3 cells [1], the “colchicine resistance relative to the LMDR1-G185V construct” value is listed as “the greatest decrease in colchicine resistance”; the “etoposide resistance relative to the LMDR1-G185V construct” value is “the effect of the double and triple lysine mutants was not additive”.

Regarding “MDR1-G185V: human P-glycoprotein having a glycine to valine substitution at position 185 (SEQ ID NO: 3) [reference compound]”, in the experiment with NIH 3T3 cells [1], the “colchicine resistance relative to cells transduced with wild-type MDR1” value is “an even higher level of colchicine resistance”, the “doxorubicin resistance relative to cells transduced with wild-type MDR1” value is recorded as “doxorubicin resistance was enhanced”, the “etoposide resistance relative to cells transduced with wild-type MDR1” value is “increase etoposide resistance” and the “taxol resistance relative to cells transduced with wild-type MDR1” value is “decrease resistance levels to both of these drugs”. The “vinblastine resistance relative to cells transduced with wild-type MDR1” value with NIH 3T3 cells [1] is “decrease resistance levels to both of these drugs”.

With “I190F/M197F: MDR1-G185V construct with isoleucine to phenylalanine at residue 190 and methionine to phenylalanine at residue 197”, in the experiment with NIH 3T3 cells [1], the “doxorubicin resistance relative to the LMDR1-G185V construct” value is listed as “moderate increases in doxorubicin resistance”, the “etoposide resistance relative to the LMDR1-G185V construct” value is listed as “the greatest resistance”, the “taxol resistance relative to the LMDR1-G185V construct” value is on record as “significant increase in taxol resistance” and the “vinblastine resistance relative to the LMDR1-G185V construct” value is reported as “increased vinblastine resistance”.

Consider “LMDR1-G185V-EK3: MDR1-G185V construct with glutamic acid to lysine substitutions at positions 643, 647, and 652”, for which, in the experiment on NIH 3T3 cells [1], the “colchicine resistance relative to the LMDR1-G185V construct” value was “decrease colchicine resistance”, the “doxorubicin resistance relative to the LMDR1-G185V construct” value was “increase doxorubicin resistance”, the “fold increase in doxorubicin resistance relative to the LMDR1-G185V construct” value is “nearly a four-fold increase” and the “fold increase in etoposide resistance relative to the LMDR1-G185V construct” value is 1.6 fold.
